The source of these data is US20110039762A1, “TARGETED ANTIMICROBIAL MOIETIES” (C3 JIAN, INC., priority 2009, published 2011).

Entries after “also recorded” stand apart in the source; their conditions may differ.

One test relates to S. pneumoniae. Kind of test: Kill or inhibit growth/proliferation; morphology, biofilm and growth disruption (Tables 5, 6). Further: test concentration or dose not given here. Also noted: key: A: Peptide aggregates; B: Less hyphal formation; Clumps; Diffuse clumps and small polyps; F: Diffuse growth; H: Thin; I: Growth inhibition; Microcolony formation; Rippled; Small polyps; Thick; W: Halo formation on top, microlonies on bottom. In kind it is cell-based, Streptococcus pneumoniae.

Test [1] relates to microorganisms (e.g., bacteria, yeasts, fungi). Kind of test: Targeting peptide binding to target microorganisms (Table 3). The note with it: preferably 1x PBS; for Target(s) (microorganisms bound by the targeting peptide): peptide binding in aqueous buffers varied by peptide solubility.
Where [2] appears, read: microorganism(s) the targeting peptide binds, peptide binding conducted in aqueous buffers varied by peptide solubility.
The mark [3] stands for this setting: microorganism(s) the targeting peptide binds, binding in aqueous buffers depending on peptide solubility.
Where [4] appears, read: microorganism the targeting peptide binds, binding in aqueous buffers varied by peptide solubility.

Regarding “PF-485 (KNSMSRSIALID; Peptide with targeting and/or antimicrobial activity)”, in the test on S. pneumoniae, the “Organism, effect” value was “S. pneumoniae (A)”. Consider “PF-652 (chain 1 FLAPARPDLQAQRQALAQ; chain 2 FLAPARPDLQAQRQALAQ; Peptide with targeting and/or antimicrobial activity)”, for which the “Organism, effect (morphology, biofilm and growth disruption)” value in the test on S. pneumoniae is “S. pneumoniae (A)”. Besides, the “Target(s) (microorganisms bound by the targeting peptide)” value in test [1] was “Mycobacteria spp”. Consider “PF-449 (MPTTKSKQKGWTNTKKASNTQ; Peptide with targeting and/or antimicrobial activity)”, for which the “Organism, effect” value in the test on S. pneumoniae is on record as “S. pneumoniae (H)”. In the case of “PF-696 (chain 1 IRSGISAAYARPLR; chain 2 IRSGISAAYARPLR; Peptide with targeting and/or antimicrobial activity)”, the “Organism, effect (morphology, biofilm and growth disruption)” value in the test with S. pneumoniae is given as “S. pneumoniae (H)”. Besides, in test [1], the “Target(s) (microorganisms bound by the targeting peptide)” value is “Mycobacteria spp”. “PF-663 (chain 1 ATLIPRKA; chain 2 ATLIPRKA; Peptide with targeting and/or antimicrobial activity)”: the “Organism, effect (morphology, biofilm and growth disruption)” value in the test with S. pneumoniae is recorded as “S. pneumoniae (A)”. Besides, in test [1], the “Target(s) (microorganisms bound by the targeting peptide)” value is reported as “Mycobacteria spp”. Regarding “PF-666 (chain 1 PNRRSRPR; chain 2 PNRRSRPR; Peptide with targeting and/or antimicrobial activity)”, the “Organism, effect (morphology, biofilm and growth disruption)” value with S. pneumoniae is given as “S. pneumoniae (A)”. The “Target(s) (microorganisms bound by the targeting peptide)” value in test [1] is listed as “Mycobacteria spp”. In the case of “PF-419 (VVTGKVGSLPQIK; Peptide with targeting and/or antimicrobial activity)”, the “Organism, effect” value in the test with S. pneumoniae is “S. pneumoniae (H)”. Consider “PF-644 (chain 1 TSGLIIGENGLNGL; chain 2 TSGLIIGENGLNGL; Peptide with targeting and/or antimicrobial activity)”, for which the “Organism, effect” value in the test on S. pneumoniae was “S. pneumoniae (H)”. The “Target(s) (microorganisms bound by the targeting peptide)” value in test [1] is listed as “Mycobacteria spp”. “PF-687 (chain 1 AKRVLSLAVAPHRRQPVQGT; chain 2 AKRVLSLAVAPHRRQPVQGT; Peptide with targeting and/or antimicrobial activity)”: the “Organism, effect (morphology, biofilm and growth disruption)” value with S. pneumoniae was “S. pneumoniae (A)”. Besides, the “Target(s) (microorganisms bound by the targeting peptide)” value in test [1] is “Mycobacteria spp”. “PF-415 (MIDVTIGQKSKTGAFNASYSICFSGENFSF; Peptide with targeting and/or antimicrobial activity)”: in the test with S. pneumoniae, the “Organism, effect” value is listed as “S. pneumoniae (D)”. In the case of “PF-651 (chain 1 PRWPTGAGRHR; chain 2 PRWPTGAGRHR; Peptide with targeting and/or antimicrobial activity)”, the “Organism, effect (morphology, biofilm and growth disruption)” value in the test on S. pneumoniae is on record as “S. pneumoniae (H)”. Further, the “Target(s) (microorganisms bound by the targeting peptide)” value in test [1] was “Mycobacteria spp”. Consider “PF-704 (chain 1 APAARAAL; chain 2 APAARAAL; Peptide with targeting and/or antimicrobial activity)”, for which, in the test on S. pneumoniae, the “Organism, effect (morphology, biofilm and growth disruption)” value is listed as “S. pneumoniae (C)”. Besides, in test [1], the “Target(s) (microorganisms bound by the targeting peptide)” value is listed as “Mycobacteria spp”. Regarding “PF-691 (chain 1 HRTVEFGVLGTYLVSGGSL; chain 2 HRTVEFGVLGTYLVSGGSL; Peptide with targeting and/or antimicrobial activity)”, the “Organism, effect (morphology, biofilm and growth disruption)” value with S. pneumoniae is recorded as “S. pneumoniae (R)”. Besides, the “Target(s) (microorganisms bound by the targeting peptide)” value in test [1] is “Mycobacteria spp”. On to “PF-220 (VDPADDGTRHIRPEDGDPIEIDE; Peptide with targeting and/or antimicrobial activity)”, for which the “Organism, effect” value in the test with S. pneumoniae is reported as “S. pneumoniae (H)”. For the substance “PF-693 (chain 1 PDPAR; chain 2 PDPAR; Peptide with targeting and/or antimicrobial activity)”, the “Organism, effect (morphology, biofilm and growth disruption)” value with S. pneumoniae is recorded as “S. pneumoniae (A)”. The “Target(s) (microorganisms bound by the targeting peptide)” value in test [1] is “Mycobacteria spp”. Regarding “PF-700 (chain 1 LNWPFTGR; chain 2 LNWPFTGR; Peptide with targeting and/or antimicrobial activity)”, in the test on S. pneumoniae, the “Organism, effect (morphology, biofilm and growth disruption)” value was “S. pneumoniae (C)”. For the same substance, the “Target(s) (microorganisms bound by the targeting peptide)” value in test [1] is “Mycobacteria spp”. For the substance “PF-653 (chain 1 QSVHPLPAETPVADVI; chain 2 QSVHPLPAETPVADVI; Peptide with targeting and/or antimicrobial activity)”, in the test on S. pneumoniae, the “Organism, effect (morphology, biofilm and growth disruption)” value was “S. pneumoniae (H)”. Moreover, the “Target(s) (microorganisms bound by the targeting peptide)” value in test [1] is “Mycobacteria spp”. On to “PF-455 (MARNDDDIKKIKGTLGQSPEVYGERKLPYT; Peptide with targeting and/or antimicrobial activity)”, for which the “Organism, effect” value with S. pneumoniae was “S. pneumoniae (A)”. On the same count and under the same terms, under “PF-468 (EDNKDKKDKKDK; Peptide with targeting and/or antimicrobial activity)” stands “S. pneumoniae (H)”. Turning to “PF-495 (KGIYKKRTY; Peptide with targeting and/or antimicrobial activity)”, the “Target(s)” value in test [1] (setting [2]) is on record as “S. mutans; also recorded: E. coli”. Consider “PF-329 (IGILFDKSVRKY; Peptide with targeting and/or antimicrobial activity)”, for which, in test [1] (setting [3]), the “Target(s)” value was “S. epidermidis”. In the case of “TT-306 (KILNEAEGKLLKVIEKNGEIDIEEI; Peptide with targeting and/or antimicrobial activity)”, in test [1] (setting [4]), the “Target(s)” value is “F. nucleatum”. Turning to “1T-124 (LFDERNKIA; Peptide with targeting and/or antimicrobial activity) [Peptide 1T-124]”, the “Target(s)” value in test [1] (setting [4]) is listed as “S. mitis; also recorded: S. mutans; also recorded: S. oralis”. Regarding “PF-570 (KKFPTEESHIQAVLEFKKLTEHPSG; Peptide with targeting and/or antimicrobial activity)”, in test [1] (setting [2]), the “Target(s)” value is listed as “S. pneumoniae; also recorded: C. jeikeium”. For the substance “PF-767 (DGKQGEPVALKPTDN; Peptide with targeting and/or antimicrobial activity)”, the “Target(s) (microorganisms bound by the targeting peptide)” value in test [1] was “S. epidermidis and M. luteus and E. coli and MRSA and S. pneumoniae and E. faecalis and C. jeikeium”. For the substance “1T-78 (FFKTIFVLILGALGVAAGLYIEKNYIDK; Peptide with targeting and/or antimicrobial activity) [Peptide 1T-78]”, the “Target(s)” value in test [1] (setting [4]) is “S. pneumoniae”. Take “PF-435 (MSRWDGHSDKGEAPAGKPPMHGFGLNGENK; Peptide with targeting and/or antimicrobial activity)”: in test [1] (setting [2]), the “Target(s)” value is “C. jeikeium”. For “1T-207 (SPLEKYGTGSMTALTFLLGCCLLVLSKKSR; Peptide with targeting and/or antimicrobial activity) [Peptide 1T-207]”, the “Target(s)” value in test [1] (setting [4]) is given as “F. nucleatum; also recorded: S. sanguinis”.

“PF-348 (ESASAAEWYNPNMNVKKAICMG; Peptide with targeting and/or antimicrobial activity)”: the “Target(s)” value in test [1] (setting [3]) is on record as “B. subtilis; also recorded: E. coli; also recorded: P. aeruginosa; also recorded: C. albicans; also recorded: E. faecalis; also recorded: C. jejuni”.

For the substance “1T-74 (DIDWGRKISCAAGVAYGAIDGCATTV; Peptide with targeting and/or antimicrobial activity) [Peptide 1T-74]”, in test [1] (setting [4]), the “Target(s)” value is “S. pneumoniae”. Regarding “1T-199 (RAGRIKKLSQKEAEPFEN; Peptide with targeting and/or antimicrobial activity) [Peptide 1T-199]”, the “Target(s)” value in test [1] (setting [4]) was “S. sanguinis”. As for “1T-31 (NATGTDIGEVTLTLGRFS; Peptide with targeting and/or antimicrobial activity) [Peptide 1T-31]”, in test [1] (setting [4]), the “Target(s)” value is reported as “S. mutans; also recorded: P. aeruginosa”. For “PF-194 (MKGNKLATAHEQPVKNSAPPL; Peptide with targeting and/or antimicrobial activity)”, the “Target(s)” value in test [1] (setting [3]) was “C. jeikeium”.

For “PF-218 (SETPEKPVGTFFYSIYYKIIL; Peptide with targeting and/or antimicrobial activity)”, the “Target(s)” value in test [1] (setting [3]) is recorded as “S. epidermidis; also recorded: M. luteus; also recorded: P. aeruginosa; also recorded: A. baumannii”. For the substance “1T-36 (VYRHLRFIDGKLVEIRLERK; Peptide with targeting and/or antimicrobial activity) [Peptide 1T-36]”, the “Target(s)” value in test [1] (setting [4]) is “S. aureus; also recorded: S. epidermidis; also recorded: C. jeikeium; also recorded: C. xerosis; also recorded: C. striatum; also recorded: P. aeruginosa”. “PF-304 (LVKDTSDIKNDLNNIEIVTSKNSNDIAKLKSVK; Peptide with targeting and/or antimicrobial activity)”: in test [1] (setting [3]), the “Target(s)” value is recorded as “S. mutans”. As for “PF-047 (NQEPSLQQDKEQKDNKG; Peptide with targeting and/or antimicrobial activity)”, the “Target(s)” value in test [1] (setting [4]) is “S. mutans”.

On to “1T-7 (SQRIIEPVKSPQPYPGFSVS; Peptide with targeting and/or antimicrobial activity) [Peptide 1T-7]”, for which the “Target(s)” value in test [1] (setting [4]) is “M. xanthus”.

“1T-222 (RIEASLISAIMFSMFNAIVKFLQK; Peptide with targeting and/or antimicrobial activity) [Peptide 1T-222]”: the “Target(s)” value in test [1] (setting [4]) was “F. nucleatum; also recorded: S. sanguinis”. Take “PF-262 (DPHSEIDVTRYCQLHHFTCQTMQISEREFHYLIETQ; Peptide with targeting and/or antimicrobial activity)”: the “Target(s)” value in test [1] (setting [3]) is on record as “S. mutans; also recorded: S. epidermidis; also recorded: M. luteus; also recorded: E. coli; also recorded: P. aeruginosa; also recorded: A. baumannii”.

Consider “PF-268 (EVLLSDLRPDIFSET; Peptide with targeting and/or antimicrobial activity)”, for which, in test [1] (setting [3]), the “Target(s)” value is “S. mutans”.
